Measurements published in ChEMBL document CHEMBL3120112, “Novel bronchodilatory quinazolines and quinoxalines: synthesis and biological evaluation” (Eur J Med Chem, 2014).
The source made the active and inactive calls. The calls are words filed in the database; no cut-off is given here.

Columns and labels:
[1] = Bronchodilatory activity in Wistar rat trachea assessed as inhibition of carbacol-induced contraction; assay type: functional; conditions: read-out: ED50 (the source's name)
Mus musculus [2] = test: Toxicity in ICR mouse assessed as change in liver weight at 18 mg/kg, po qd for 7 days measured every day for 7 days (1.772 +/- 0.120 g); assay type: organism-based; set-up: dose 18 mg/kg, route oral; conditions: in vivo, 168 h
Mus musculus [3] = test: Toxicity in ICR mouse assessed as change in kidney weight at 54 mg/kg, po qd for 7 days measured every day for 7 days (0.248 +/- 0.026 g); assay type: organism-based; set-up: dose 54 mg/kg, route oral; conditions: in vivo, 168 h
Mus musculus [4] = test: Toxicity in ICR mouse assessed as change in testicle weight at 18 mg/kg, po qd for 7 days measured every day for 7 days (0.118 +/- 0.004 g); assay type: organism-based; set-up: dose 18 mg/kg, route oral; conditions: in vivo, 168 h
Mus musculus [5] = test: Toxicity in ICR mouse assessed as change in kidney weight at 18 mg/kg, po qd for 7 days measured every day for 7 days (0.248 +/- 0.026 g); assay type: organism-based; set-up: dose 18 mg/kg, route oral; conditions: in vivo, 168 h
[6] = Acute toxicity in ip dosed ICR mouse; assay type: organism-based; conditions: in vivo
Mus musculus [7] = test: Toxicity in ICR mouse assessed as change in heart weight at 54 mg/kg, po qd for 7 days measured every day for 7 days (0.155 +/- 0.002 g); assay type: organism-based; set-up: dose 54 mg/kg, route oral; conditions: in vivo, 168 h
Mus musculus [8] = test: Toxicity in ICR mouse assessed as change in heart weight at 18 mg/kg, po qd for 7 days measured every day for 7 days (0.155 +/- 0.002 g); assay type: organism-based; set-up: dose 18 mg/kg, route oral; conditions: in vivo, 168 h
Mus musculus [9] = test: Toxicity in ICR mouse assessed as change in testicle weight at 54 mg/kg, po qd for 7 days measured every day for 7 days (0.118 +/- 0.004 g); assay type: organism-based; set-up: dose 54 mg/kg, route oral; conditions: in vivo, 168 h
Mus musculus [10] = test: Toxicity in ICR mouse assessed as change in liver weight at 36 mg/kg, po qd for 7 days measured every day for 7 days (1.772 +/- 0.120 g); assay type: organism-based; set-up: dose 36 mg/kg, route oral; conditions: in vivo, 168 h
Mus musculus [11] = test: Toxicity in ICR mouse assessed as change in heart weight at 36 mg/kg, po qd for 7 days measured every day for 7 days (0.155 +/- 0.002 g); assay type: organism-based; set-up: dose 36 mg/kg, route oral; conditions: in vivo, 168 h
Mus musculus [12] = test: Toxicity in ICR mouse assessed as change in liver weight at 54 mg/kg, po qd for 7 days measured every day for 7 days (1.772 +/- 0.120 g); assay type: organism-based; set-up: dose 54 mg/kg, route oral; conditions: in vivo, 168 h
Mus musculus [13] = test: Toxicity in ICR mouse assessed as change in spleen weight at 54 mg/kg, po qd for 7 days measured every day for 7 days (0.143 +/- 0.033 g); assay type: organism-based; set-up: dose 54 mg/kg, route oral; conditions: in vivo, 168 h
Mus musculus [14] = test: Toxicity in ICR mouse assessed as change in spleen weight at 18 mg/kg, po qd for 7 days measured every day for 7 days (0.143 +/- 0.033 g); assay type: organism-based; set-up: dose 18 mg/kg, route oral; conditions: in vivo, 168 h
Mus musculus [15] = test: Toxicity in ICR mouse assessed as change in testicle weight at 36 mg/kg, po qd for 7 days measured every day for 7 days (0.118 +/- 0.004 g); assay type: organism-based; set-up: dose 36 mg/kg, route oral; conditions: in vivo, 168 h
Mus musculus [16] = test: Toxicity in ICR mouse assessed as change in kidney weight at 36 mg/kg, po qd for 7 days measured every day for 7 days (0.248 +/- 0.026 g); assay type: organism-based; set-up: dose 36 mg/kg, route oral; conditions: in vivo, 168 h
Mus musculus [17] = test: Toxicity in ICR mouse assessed as change in spleen weight at 36 mg/kg, po qd for 7 days measured every day for 7 days (0.143 +/- 0.033 g); assay type: organism-based; set-up: dose 36 mg/kg, route oral; conditions: in vivo, 168 h
Rattus norvegicus [18] = species: Rattus norvegicus; conditions: Wistar, Trachea
Rattus norvegicus [19] = species: Rattus norvegicus; test: Antagonist activity at rat trachea muscarinic acetylcholine receptor assessed as inhibition of carbachol-induced contraction preincubated for 10 mins followed by agonist challenge
Cavia porcellus = species: Cavia porcellus; test: Agonist activity at guinea pig trachea beta adrenergic receptor assessed as relaxation effect in presence of propranolol
Mus musculus [20] = test: Toxicity in ICR mouse assessed as mortality at 18 to 54 mg/kg, po qd for 7 days measured every day for 7 days; assay type: organism-based; set-up: dose 18-54 mg/kg, route oral; conditions: in vivo, 168 h
Mus musculus [21] = test: Toxicity in ICR mouse assessed as change in body weight at 18 to 54 mg/kg, po qd for 7 days measured every day for 7 days; assay type: organism-based; set-up: dose 18-54 mg/kg, route oral; conditions: in vivo, 168 h
[22] = Bronchodilatory activity in guinea pig trachea assessed as inhibition of contraction; assay type: functional, tissue-based
Trachea = test: Potency index, ratio of theophylline ED50 to compound ED50 for bronchodilatory activity in Wistar rat trachea; assay type: functional

SMILES	EC50 [1] [µM]	further results
Cl.c1ccc2c(SCCCN3CCCCC3)ncnc2c1	–	Activity (Mus musculus [2]): 1.762 g; Activity (Mus musculus [3]): 0.242 g; Activity (Mus musculus [4]): 0.122 g; Activity (Mus musculus [5]): 0.24 g; LD50 [6]: 89.1 mg/kg; Activity (Mus musculus [7]): 0.144 g; Activity (Mus musculus [8]): 0.146 g; Activity (Mus musculus [9]): 0.115 g; Activity (Mus musculus [10]): 1.679 g; Activity (Mus musculus [11]): 0.154 g; Activity (Mus musculus [12]): 1.64 g; Activity (Mus musculus [13]): 0.131 g; Activity (Mus musculus [14]): 0.134 g; Activity (Mus musculus [15]): 0.116 g; Activity (Mus musculus [16]): 0.238 g; Activity (Mus musculus [17]): 0.147 g
O=C(O)Cn1cnc2ccccc2c1=O	–	ED50 (Rattus norvegicus [18]): inactive
Cl.O=c1c2ccccc2ncn1CCCN1CCCCC1	–	LD50 [6]: 162 mg/kg
Cl.c1ccc2nc(SCCCN3CCCCC3)cnc2c1	3.26	Activity (Rattus norvegicus [19]): Active; LD50 [6]: 104 mg/kg; Activity (Cavia porcellus): Active
O=c1cnc2ccccc2n1CCCN1CCCCC1	43	–
Cn1c(=O)c2nc[nH]c2n(C)c1=O [THEOPHYLLINE]	2090	–
c1ccc2c(SCCCN3CCCCC3)ncnc2c1 [listing 1 of 2 here]	3.42	Activity (Mus musculus [20]): Non-toxic; Activity (Mus musculus [21]): Non-toxic
c1ccc2c(SCCCN3CCCCC3)ncnc2c1 [listing 2 of 2 here]	–	Activity (Rattus norvegicus [19]): Active; Activity (Cavia porcellus): Active
O=c1ccn(CCCN2CCCCC2)cc1	4230	–
O=c1ccncn1CCCN1CCCCC1	1120	–
O=c1ccn(CCCN2CCCCC2)c2ccccc12	946	–
COc1cc2nc3n(c(=O)c2cc1OC)CCCCC3	–	EC50 [22]: 73 µM
O=c1[nH]cnc2ccccc12 [QUINAZOLINONE]	810	–
O=c1c2ccccc2ncn1CCCN1CCCCC1	28.3	Ratio ED50 (Trachea): 100

Further lines, with some results ahead:

EC50 [1] [µM]	SMILES	further results
173	CN1CCCC1CCNc1ncnc2ccccc12 (centres undefined)	–
65.3	CN(C)CCSc1ncnc2ccccc12	–
1900	O=c1c2ccccc2ncn1CCN1CCOCC1	–
747	Cn1cnc2ccccc2c1=O	–
191	c1ccc2c(NCCN3CCCCC3)ncnc2c1	–
258	c1ccc2c(NCCN3CCOCC3)ncnc2c1	–
2860	O=c1c2ccccc2nc2n1CC[C@@H]2O	–
440	CN(C)CCn1cnc2ccccc2c1=O	–
76.6	CN1CCCC1CCSc1ncnc2ccccc12 (centres undefined)	–
104	CN1CCCC1CCn1cnc2ccccc2c1=O (centres undefined)	–
562	O=c1c2ccccc2ncn1CCN1CCCC1	–
132	c1ccc2c(OCCCN3CCCCC3)ncnc2c1	–
178	O=c1c2ccccc2ncn1CCN1CCCCC1	–
58.7	c1ccc2c(SCCCN3CCCCC3)ccnc2c1	–
45.3	O=c1c2ccccc2[n+]([O-])cn1CCCN1CCCCC1	–
162	CN(C)CCOc1ncnc2ccccc12	–
301	c1ccc2c(OCCN3CCCCC3)ncnc2c1	–
601	O=c1c2ccccc2ncn1CCC[N+]1([O-])CCCCC1	–
